Reference: ChEMBL document CHEMBL1134349, “AMP deaminase inhibitors. 5. Design, synthesis, and SAR of a highly potent inhibitor series” (J Med Chem, 2001)

The molecules below were run against T1, Adenosine deaminase (Bos taurus, UniProt P56658) (assay: Inhibition of Calf intestinal adenosine deaminase (ADA).).
T1 sequence (P56658 whole entry): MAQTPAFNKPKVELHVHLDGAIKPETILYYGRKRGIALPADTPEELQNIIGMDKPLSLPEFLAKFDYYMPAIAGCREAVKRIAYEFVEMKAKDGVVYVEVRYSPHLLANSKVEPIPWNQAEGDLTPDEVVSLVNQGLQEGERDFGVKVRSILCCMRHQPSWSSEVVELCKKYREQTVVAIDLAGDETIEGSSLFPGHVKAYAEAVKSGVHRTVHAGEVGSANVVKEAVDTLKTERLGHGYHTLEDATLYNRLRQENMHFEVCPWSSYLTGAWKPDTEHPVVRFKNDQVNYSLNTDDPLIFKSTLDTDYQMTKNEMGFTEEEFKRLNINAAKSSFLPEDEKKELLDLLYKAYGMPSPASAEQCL

Row | SMILES | Ki [µM]
1 | CCOC(=O)c1cc(CCn2cnc3c2N=CNCC3O)c2cccc(C(F)(F)F)c2c1 (configuration not stated) | 2.7
2 | CCOC(=O)c1cc2c(c(CCn3cnc4c3N=CNCC4O)c1)CCCC2 (configuration not stated) | 3.4
3 | O=C(O)c1cc(CCn2cnc3c2N=CNCC3O)c2cccc(C(F)(F)F)c2c1 (configuration not stated) | > 7.5
4 | O=C(O)c1cc(CCn2cnc3c2N=CNCC3O)c2c(c1OCc1ccccc1)CCCC2 (configuration not stated) | > 7.5
5 | O=C(OCc1ccccc1)c1cc2c(c(CCn3cnc4c3N=CNCC4O)c1)CCCC2 (configuration not stated) | 0.72
6 | COc1c(C(=O)O)cc2c(c1CCn1cnc3c1NC=NCC3O)CCCC2 (configuration not stated) | > 7.5
7 | CCOC(=O)c1cc(CCn2cnc3c2NC=NCC3O)c2c(c1OC)CCCC2 (configuration not stated) | 3.7
8 | O=C(O)c1cc2c(c(CCn3cnc4c3NC=NCC4O)c1)CCCC2 (configuration not stated) | > 7.5
9 | CCOC(=O)c1cc(CCn2cnc3c2NC=NCC3O)c2c(c1OCc1ccccc1)CCCC2 (configuration not stated) | > 7.5
10 | COc1c(C(=O)O)cc(CCn2cnc3c2NC=NCC3O)c2c1CCCC2 (configuration not stated) | > 7.5
11 | CCOC(=O)c1cc2c(c(CCn3cnc4c3N=CNCC4O)c1OC)CCCC2 (configuration not stated) | > 7.5
12 | O=C(O)c1c(Cl)c2c(c(CCn3cnc4c3N=CNCC4O)c1Cl)CCCC2 (configuration not stated) | > 7.5
13 | CCOC(=O)c1cc(CCn2cnc3c2NC=NCC3O)c2c(c1OC(C)C)CCCC2 (configuration not stated) | > 7.5
14 | CCOC(=O)c1cc(CCn2cnc3c2N=CNCC3O)c2cc(Br)ccc2c1 (configuration not stated) | 4.4
15 | O=C(OCc1ccccc1)c1c(Cl)c2c(c(CCn3cnc4c3NC=NCC4O)c1Cl)CCCC2 (configuration not stated) | > 7.5

The remaining lines, values ahead:

Row | Ki [µM] | SMILES
16 | > 7.5 | COC(=O)c1cc(CCn2cnc3c2NC=NCC3O)c2ccccc2c1 (configuration not stated)
17 | 0.53 | CCOC(=O)c1cc(CCn2cnc3c2NC=NCC3O)c2c(c1Br)CCCC2 (configuration not stated)
18 | > 7.5 | O=C(O)c1cc(CCn2cnc3c2N=CNCC3O)c2cc(Br)ccc2c1 (configuration not stated)
19 | > 7.5 | CCOC(=O)c1c(Cl)c2c(c(CCn3cnc4c3NC=NCC4O)c1Cl)CCCC2 (configuration not stated)
20 | > 7.5 | CC(C)Oc1c(C(=O)O)cc(CCn2cnc3c2N=CNCC3O)c2c1CCCC2 (configuration not stated)
21 | > 1000 | O=C(O)c1cc(CCn2cnc3c2NC=NCC3O)c2ccccc2c1 (configuration not stated)
22 | > 7.5 | O=C(O)c1cc(CCn2cnc3c2N=CNCC3O)c2c(c1Br)CCCC2 (configuration not stated)

These molecules were tested against T2, AMP deaminase 3 (Homo sapiens, UniProt Q01432) (assay: Inhibition of recombinant human E-type adenylate deaminase).
T2 sequence (Q01432 whole entry): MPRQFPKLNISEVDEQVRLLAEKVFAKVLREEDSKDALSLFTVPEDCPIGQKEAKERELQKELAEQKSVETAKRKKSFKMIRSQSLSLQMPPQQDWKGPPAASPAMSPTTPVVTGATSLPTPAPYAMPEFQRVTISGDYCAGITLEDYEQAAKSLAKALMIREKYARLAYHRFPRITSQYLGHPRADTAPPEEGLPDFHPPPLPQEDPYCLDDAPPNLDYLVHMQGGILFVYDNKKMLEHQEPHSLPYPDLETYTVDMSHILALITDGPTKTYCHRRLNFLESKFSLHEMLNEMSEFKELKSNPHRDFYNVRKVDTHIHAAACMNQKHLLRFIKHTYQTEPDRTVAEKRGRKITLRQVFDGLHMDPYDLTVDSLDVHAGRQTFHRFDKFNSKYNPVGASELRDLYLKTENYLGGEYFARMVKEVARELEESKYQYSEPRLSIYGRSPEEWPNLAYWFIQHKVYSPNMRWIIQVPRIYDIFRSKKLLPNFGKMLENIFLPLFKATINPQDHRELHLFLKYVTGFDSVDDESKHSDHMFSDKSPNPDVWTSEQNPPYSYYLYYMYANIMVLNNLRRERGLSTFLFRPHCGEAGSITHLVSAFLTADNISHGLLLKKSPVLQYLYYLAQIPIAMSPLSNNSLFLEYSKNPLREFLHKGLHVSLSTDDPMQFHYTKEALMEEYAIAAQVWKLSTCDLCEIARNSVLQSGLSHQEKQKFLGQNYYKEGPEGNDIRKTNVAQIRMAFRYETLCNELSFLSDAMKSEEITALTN

Row | SMILES | Ki [µM]
23 | CCOC(=O)c1cc(CCn2cnc3c2N=CNCC3O)c2cccc(C(F)(F)F)c2c1 (configuration not stated) | 35
24 | CCOC(=O)c1cc2c(c(CCn3cnc4c3N=CNCC4O)c1)CCCC2 (configuration not stated) | 1.3
25 | O=C(O)c1cc(CCn2cnc3c2N=CNCC3O)c2cccc(C(F)(F)F)c2c1 (configuration not stated) | 0.22
26 | O=C(O)c1cc(CCn2cnc3c2N=CNCC3O)c2c(c1OCc1ccccc1)CCCC2 (configuration not stated) | 0.009
27 | O=C(OCc1ccccc1)c1cc2c(c(CCn3cnc4c3N=CNCC4O)c1)CCCC2 (configuration not stated) | 5
28 | COc1c(C(=O)O)cc2c(c1CCn1cnc3c1NC=NCC3O)CCCC2 (configuration not stated) | 0.04
29 | CCOC(=O)c1cc(CCn2cnc3c2NC=NCC3O)c2c(c1OC)CCCC2 (configuration not stated) | 2.3
30 | O=C(O)c1cc2c(c(CCn3cnc4c3NC=NCC4O)c1)CCCC2 (configuration not stated) | 0.015
31 | CCOC(=O)c1cc(CCn2cnc3c2NC=NCC3O)c2c(c1OCc1ccccc1)CCCC2 (configuration not stated) | 0.3
32 | COc1c(C(=O)O)cc(CCn2cnc3c2NC=NCC3O)c2c1CCCC2 (configuration not stated) | 0.03
33 | CCOC(=O)c1cc2c(c(CCn3cnc4c3N=CNCC4O)c1OC)CCCC2 (configuration not stated) | 2.4
34 | O=C(O)c1c(Cl)c2c(c(CCn3cnc4c3N=CNCC4O)c1Cl)CCCC2 (configuration not stated) | 0.05
35 | CCOC(=O)c1cc(CCn2cnc3c2NC=NCC3O)c2c(c1OC(C)C)CCCC2 (configuration not stated) | 3.8
36 | CCOC(=O)c1cc(CCn2cnc3c2N=CNCC3O)c2cc(Br)ccc2c1 (configuration not stated) | 14
37 | O=C(OCc1ccccc1)c1c(Cl)c2c(c(CCn3cnc4c3NC=NCC4O)c1Cl)CCCC2 (configuration not stated) | 0.3
38 | O=C(O)c1cccc(CCn2cnc3c2N=CNCC3O)c1 (configuration not stated) | 0.5
39 | O=C(O)C(CCCCn1cnc2c1NC=NCC2O)Cc1ccccc1 (configuration not stated) | 0.41

Continued by falling Ki, values first:

Row | Ki [µM] | SMILES
40 | 3 | OC[C@H]1O[C@@H](n2cnc3c2N=CNC[C@H]3O)[C@H](O)[C@@H]1O [COFORMYCIN]
41 | 1.8 | COC(=O)c1cc(CCn2cnc3c2NC=NCC3O)c2ccccc2c1 (configuration not stated)
42 | 1 | CCOC(=O)c1cc(CCn2cnc3c2NC=NCC3O)c2c(c1Br)CCCC2 (configuration not stated)
43 | 0.96 | O=C(O)c1cc(CCn2cnc3c2N=CNCC3O)c2cc(Br)ccc2c1 (configuration not stated)
44 | 0.5 | CCOC(=O)c1c(Cl)c2c(c(CCn3cnc4c3NC=NCC4O)c1Cl)CCCC2 (configuration not stated)
45 | 0.09 | CC(C)Oc1c(C(=O)O)cc(CCn2cnc3c2N=CNCC3O)c2c1CCCC2 (configuration not stated)
46 | 0.02 | O=C(O)c1cc(CCn2cnc3c2NC=NCC3O)c2ccccc2c1 (configuration not stated)
47 | 0.002 | O=C(O)c1cc(CCn2cnc3c2N=CNCC3O)c2c(c1Br)CCCC2 (configuration not stated)
